# Laboratory results from patent US11897876B2, “Isoxazolidines as RIPK1 inhibitors and use thereof” (GENZYME CORPORATION, priority 2022, dated 2024).
# Where two headings read alike, the source gives them in different places.
# Test system: U937 cells
# Experiment: Cellular assay in U937 cells, TNFα/zVAD.fmk-induced cell death (necroptosis), MTS readout
# Assay type: cell-based
# Conditions: Homo sapiens, U-937
# Source text: Cellular Assay in U937 Cells to Measure the Activity of RIPK1-Inhibitors on Cell Death (Necroptosis).
# Upon TNF-Receptor I ligation, Ser/Thr kinase RIPK1 is recruited to a transient receptor complex I. Upon modification of RIPK1 which promotes activation of RIPK1, complex […] can form, that involves recruitment of RIPK3 and MLKL (mixed lineage-kinase domain-like protein) which then translocates from the cytosol to the plasma membrane to execute cell death (Cai, Z. et al, Nat. Cell Biol. (2014)16:55-65).
# Cell death was quantified in 96 well plates by determination of the amount of live cell using a CellTiter 96 AQueous reagent (Promega), a calorimetric method to measure the amount of live cells by reducing tetrazolium compound [3-(4,5-dimethylthiazol-2-yl)-5-(3-carboxymethoxyphenyl)-2-(4-sulfophenyl)-2H-tetrazolium, inner salt; MTS] into formazan. Absorbance of formazan was read at 490 nm. The inhibitory activity of the test compound was quantified in a concentration response curve (CRC) experiment. Compounds were obtained as 10 mM stock solutions and were diluted 1 to 10 volumes with DMSO to yield a 1 mM solution. From this solution 2 μl were diluted with 998 μl growth medium. 100 μl of 2 μM compound solution was further diluted sequentially with a dilution factor of 2.5 by adding 150 μl growth medium. A total of 10 concentrations were tested ranging from 10 μM to 0.26 nM or from 1 μM to 0.07 nM.
# U937 cells were cultured in RPM11640 Glutamax and 10% heat inactivated FBS. 50 μl cell suspension containing 1×10^6 cells/ml supplemented with 50 μM zVAD.fmk (Benzyloxycarbonyl-Val-Ala-Asp (OMe) fluoromethylketone) and 100 ng/ml recombinant human TNFα were dispensed in each well of a 96-well plate. 50 μl of compound dilutions (see above) were added and the cell suspension incubated overnight (18 to 24 hrs) at 37° C., 5% CO2 in a humidified atmosphere (95% rH). High (no compound) and low control (no TNFα, zVAD.fmk) were tested with 7 replicates; all compound concentrations were tested in duplicates on each experimental plate.
# CellTiter 96 Aqueous reagent was mixed (100 μl PMS (phenazine methosulfate) solution/2 ml MTS (3-(4,5-[…])-5-(3-carboxymethoxyphenyl)-2-(4-sulfophenyl)-2H-tetrazolium, inner salt) solution) and 20 μl were added per well. After 4 hrs incubation at 37° C. (5% CO2 95% rH) optical density was measured at 490 nm on a microplate reader (Tecan Infinite M1000).
# The % inhibition is expressed as percentage of the maximal inhibition value obtained in the absence of TNFα/zVAD.fmc.
# [1] = U937 cells, 100 ng/ml TNFα + 50 μM zVAD.fmk, overnight (18 to 24 hrs), read-out: U937 IC50
# [2] = own data, read-out: IC50 (U937)
SMILES,IC50 [1] [nM],IC50 [2] [nM],"IC50 (own data, read-out: pIC50 (U937) (converted)) [nM]"
"Cc1c(F)cc([C@@H]2CCON2C(=O)C2CCN(c3cc(-n4ccnc4C)ncn3)CC2)cc1C#N [Example 2, 3-Fluoro-2-methyl-5-[(3S)-2-[1-[6-(2-methylimidazol-1-yl)pyrimidin-4-yl]piperidine-4-carbonyl]isoxazolidin-3-yl]benzonitrile]",3.8,,
"Cc1nccn1-c1cc(N2CCC(C(=O)N3OCC[C@H]3c3cc(F)cc(C#N)c3)CC2)ncn1 [Example 1, 3-Fluoro-5-[(3S)-2-[1-[6-(2-methylimidazol-1-yl)pyrimidin-4-yl]piperidine-4-carbonyl]isoxazolidin-3-yl]benzonitrile]",5.9,,
"O=C(C1CCN(c2nccc(-c3ccccc3)n2)CC1)N1N=CCC1c1ccccc1 (centres unmarked) [Comparator Example A, (3-Phenyl-3,4-dihydropyrazol-2-yl)-[1-(4-phenylpyrimidin-2-yl)-4-piperidyl]methanone, reference compound]",8,8,
"Cc1ncnn1-c1cc(N2CCC(C(=O)N3OCC[C@H]3c3cc(F)cc(C#N)c3)CC2)ncn1 [Example 11, 3-Fluoro-5-[(3S)-2-[1-[6-(5-methyl-1,2,4-triazol-1-yl)pyrimidin-4-yl]piperidine-4-carbonyl]isoxazolidin-3-yl]benzonitrile]",9.3,,
"O=C(C1CCN(c2nccc(-c3ccccc3)n2)CC1)N1OCC[C@H]1c1ccccc1 [Comparator Example B, [(3S)-3-Phenylisoxazolidin-2-yl]-[1-(4-phenylpyrimidin-2-yl)-4-piperidyl]methanone, reference compound]",9.4,9,
"Cc1cnn(-c2ncnc(N3CCC(C(=O)N4OCC[C@H]4c4cc(F)c(C)c(C#N)c4)CC3)c2F)c1 [Example 14, 3-Fluoro-5-[(3S)-2-[1-[5-fluoro-6-(4-methylpyrazol-1-yl)pyrimidin-4-yl]piperidine-4-carbonyl]isoxazolidin-3-yl]-2-methyl-benzonitrile]",3.4,,
"Cc1nnc(-c2cc(N3CCC(C(=O)N4OCC[C@H]4c4cc(F)cc(C#N)c4)CC3)ncn2)o1 [Comparator Example E, 3-Fluoro-5-[(3S)-2-[1-[6-(5-methyl-1,3,4-oxadiazol-2-yl)pyrimidin-4-yl]piperidine-4-carbonyl]isoxazolidin-3-yl]benzonitrile, reference compound]",197,197,
"Cc1ncn(-c2cc(N3CCC(C(=O)N4OCC[C@H]4c4cc(F)cc(C#N)c4)CC3)ncn2)n1 [Example 10, 3-Fluoro-5-[(3S)-2-[1-[6-(3-methyl-1,2,4-triazol-1-yl)pyrimidin-4-yl]piperidine-4-carbonyl]isoxazolidin-3-yl]benzonitrile]",2,,
"Cc1nccn1-c1ncnc(N2CCC(C(=O)N3OCC[C@H]3c3cc(F)cc(C#N)c3)CC2)c1F [Example 13, 3-Fluoro-5-[(3S)-2-[1-[5-fluoro-6-(2-methylimidazol-1-yl)pyrimidin-4-yl]piperidine-4-carbonyl]isoxazolidin-3-yl]benzonitrile]",4.3,,
"Cn1nccc1-c1cc(N2CCC(C(=O)N3OCC[C@H]3c3cc(F)cc(F)c3)CC2)ncn1 [Example 4, [(3S)-3-(3,5-Difluorophenyl)isoxazolidin-2-yl]-[1-[6-(2-methylpyrazol-3-yl)pyrimidin-4-yl]-4-piperidyl]methanone]",5,,
"Cn1nccc1-c1cc(N2CCC(C(=O)N3OCC[C@H]3c3cc(F)cc(C#N)c3)CC2)ncn1 [Example 3, 3-Fluoro-5-[(3S)-2-[1-[6-(2-methylpyrazol-3-yl)pyrimidin-4-yl]piperidine-4-carbonyl]isoxazolidin-3-yl]benzonitrile]",8.1,,
"Cc1nnc(-c2cc(N3CCC(C(=O)N4OCC[C@H]4c4ccccc4)CC3)ncn2)o1 [Comparator Example D, [1-[6-(5-Methyl-1,3,4-oxadiazol-2-yl)pyrimidin-4-yl]-4-piperidyl]-[(3S)-3-phenylisoxazolidin-2-yl]methanone, reference compound]",92,92,
"Cc1cc(-c2cc(N3CCC(C(=O)N4OCC[C@H]4c4cc(F)cc(C#N)c4)CC3)ncn2)n(C)n1 [Example 9, 3-[(3S)-2-[1-[6-(2,5-Dimethylpyrazol-3-yl)pyrimidin-4-yl]piperidine-4-carbonyl]isoxazolidin-3-yl]-5-fluoro-benzonitrile]",15,,
"Cc1nc(C2CC2)cn1-c1cc(N2CCC(C(=O)N3OCC[C@H]3c3cc(F)cc(C#N)c3)CC2)ncn1 [Example 7, 3-[(3S)-2-[1-[6-(4-Cyclopropyl-2-methyl-imidazol-1-yl)pyrimidin-4-yl]piperidine-4-carbonyl]isoxazolidin-3-yl]-5-fluoro-benzonitrile]",3.6,,
"Cc1nnc(-c2cc(N3CCC(C(=O)N4N=CC[C@H]4c4ccccc4)CC3)ncn2)o1 [Comparator Example C, [1-[6-(5-Methyl-1,3,4-oxadiazol-2-yl)pyrimidin-4-yl]-4-piperidyl]-[(3S)-3-phenyl-3,4-dihydropyrazol-2-yl]methanone, reference compound]",59,,59
"Cn1nncc1-c1cc(N2CCC(C(=O)N3OCC[C@H]3c3cc(F)cc(C#N)c3)CC2)ncn1 [Example 12, 3-Fluoro-5-[(3S)-2-[1-[6-(3-methyltriazol-4-yl)pyrimidin-4-yl]piperidine-4-carbonyl]isoxazolidin-3-yl]benzonitrile]",7,,
"Cn1nccc1-c1ncnc(N2CCC(C(=O)N3OCC[C@H]3c3cc(F)cc(F)c3)CC2)c1F [Example 15, [(3S)-3-(3,5-Difluorophenyl)isoxazolidin-2-yl]-[1-[5-fluoro-6-(2-methylpyrazol-3-yl)pyrimidin-4-yl]-4-piperidyl]methanone]",0.4,,
"Cc1c(F)cc([C@@H]2CCON2C(=O)C2CCN(c3cc(-n4cc(C5CC5)nc4C)ncn3)CC2)cc1C#N [Example 8, 5-[(3S)-2-[1-[6-(4-Cyclopropyl-2-methyl-imidazol-1-yl)pyrimidin-4-yl]piperidine-4-carbonyl]isoxazolidin-3-yl]-3-fluoro-2-methyl-benzonitrile]",1,1,
"Cn1nccc1-c1cc(N2CCC(C(=O)N3OCC[C@H]3c3cc(F)cc(Cl)c3)CC2)ncn1 [Example 5, [(3S)-3-(3-Chloro-5-fluoro-phenyl)isoxazolidin-2-yl]-[1-[6-(2-methylpyrazol-3-yl)pyrimidin-4-yl]-4-piperidyl]methanone]",3,,
"Cc1n[nH]cc1-c1cc(N2CCC(C(=O)N3OCC[C@H]3c3cc(F)cc(C#N)c3)CC2)ncn1 [Example 6, 3-Fluoro-5-[(3S)-2-[1-[6-(3-methyl-1H-pyrazol-4-yl)pyrimidin-4-yl]piperidine-4-carbonyl]isoxazolidin-3-yl]benzonitrile]",11.7,,
